We go through five compounds from patent US7605131B2, “EML4-ALK fusion gene” (Astellas Pharma Inc., priority 2007, dated 2009).

The target in assay [1] is T1, EML4-ALK fusion polypeptide v3 (Homo sapiens, UniProt Q9UM73, D1529E/I1461V/K1491R). Description: In vitro autophosphorylation of purified EML4-ALK fusion polypeptide v3 (immunoblot, anti-phosphorylated ALK antibody). Format: biochemical. Further details: expresses both EML4-ALK fusion polypeptide v3 having the FLAG tag at the N-terminus and CD8; made in house; host or cells: mouse BA/F3 cells infected with FLAG-EML4-ALKv3/pMX-iresCD8 retrovirus. How it is done: (§1) A recombinant retrovirus was produced according to a method of previous report (BBRC 356, 723-726, 2007) using FLAG-EML4-ALKv3/pMX-iresCD8. Mouse lymphatic cell line BA/F3 cells were infected therewith. The EML4-ALK fusion polypeptide v3 expressing BA/F3 cells were cultured in RPM1640 medium containing 10% of fetal bovine serum. To prepare the EML4-ALK fusion polypeptide v3, about 2×10^9 cells were collected. After washing 3 times with PBS, cells were lysed in a lysis solution (50 mM Tris.HCl (pH7.4), 150 mM NaCl, 1% Triton X100, 5 mM EDTA, 5 mM EGTA, 1 mM NaVO4, 1 mM DTT and protease inhibitor cocktail complete). The EML4-ALK fusion polypeptide v3 present in the supernatant obtained after a centrifugation was purified using ANTI-FLAG M2 Affinity Gel (SIGMA-ALDRICH Inc) according to the method described in the product information document. For washing and elution, the washing solution (50 mM Tris.HCl (pH7.4), 250 mM NaCl, 0.05% Brij35, 1 mM EDTA, 1 mM EGTA, 1 mM NaVO4, 1 mM DTT, complete) and the elution solution (50 mM Tris.HCl (pH7.4), 150 mM NaCl, 0.05% Brij35, 1 mM DTT, 0.5 mg/mL FLAG peptide) were used, respectively. Immunoblotting using anti-ALK antibody and anti FLAG M2 antibody (SIGMA-ALDRICH Inc.) and silver staining were carried out for the eluate to detect the EML4-ALK fusion polypeptide v3.
T1 sequence (Q9UM73 with tags, fused parts or gaps I1461V/K1491R/D1529E): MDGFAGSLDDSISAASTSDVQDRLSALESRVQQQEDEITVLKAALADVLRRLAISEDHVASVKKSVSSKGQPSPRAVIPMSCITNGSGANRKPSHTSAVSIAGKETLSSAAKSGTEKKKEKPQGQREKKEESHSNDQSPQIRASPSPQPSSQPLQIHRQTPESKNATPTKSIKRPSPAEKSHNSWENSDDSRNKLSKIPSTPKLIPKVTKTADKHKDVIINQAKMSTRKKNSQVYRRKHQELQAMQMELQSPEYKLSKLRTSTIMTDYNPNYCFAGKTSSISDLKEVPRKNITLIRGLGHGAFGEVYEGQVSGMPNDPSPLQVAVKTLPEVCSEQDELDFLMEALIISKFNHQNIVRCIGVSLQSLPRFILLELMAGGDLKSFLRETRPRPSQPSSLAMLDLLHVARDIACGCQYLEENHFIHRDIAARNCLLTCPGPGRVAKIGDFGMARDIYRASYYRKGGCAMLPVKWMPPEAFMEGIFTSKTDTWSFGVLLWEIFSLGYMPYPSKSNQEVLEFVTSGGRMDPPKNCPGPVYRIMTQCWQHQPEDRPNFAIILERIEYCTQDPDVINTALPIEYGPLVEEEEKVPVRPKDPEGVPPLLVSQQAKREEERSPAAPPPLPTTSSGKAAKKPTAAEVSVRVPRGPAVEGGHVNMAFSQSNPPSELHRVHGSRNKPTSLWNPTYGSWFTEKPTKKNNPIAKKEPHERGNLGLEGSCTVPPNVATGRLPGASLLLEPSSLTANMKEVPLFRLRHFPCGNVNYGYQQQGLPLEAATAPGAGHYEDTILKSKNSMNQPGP
(§2) The EML4-ALK fusion polypeptide v3 purified as described above was diluted in a reaction solution (15 mM Tris HCl (pH7.4), 0.25 mM MgCl2, 0.01% Tween-20, 2 mM DTT), and then ATP was not added or ATP 20 μM was added. The respective mixtures were reacted at room temperature for 1 hour. After the reaction, the auto phosphorylated EML4-ALK fusion polypeptide v3 and the EML4-ALK fusion polypeptide v3 were detected by immunoblotting using anti-phosphorylated ALK antibody, which recognizes specifically the product phosphorylated at the 1604th tyrosine residue of ALK, and anti-ALK antibody, and quantitated by an image analysis system (VersaDoc Imaging System; Bio-Rad Inc.). […]
(In general: A western blot detects proteins with antibodies after separation by electrophoresis.)

The next assay addresses T2, NPM-ALK (Homo sapiens, UniProt Q9UM73).
T2 construct: the other entry of the earlier key: NPM1 (P06748, Nucleophosmin)
The following applies: reported in Laboratory investigation 2005, Vol. 85, p. 1544-1554; cited from earlier work.

For assay [2], the target named is T1, EML4-ALK fusion polypeptide v3. Description: In vitro phosphorylation of peptide substrate by purified EML4-ALK fusion polypeptide v3 (HTRF KinEASE-TK). Format: biochemical. Further details: expresses both EML4-ALK fusion polypeptide v3 having the FLAG tag at the N-terminus and CD8; made in house; host or cells: mouse BA/F3 cells infected with FLAG-EML4-ALKv3/pMX-iresCD8 retrovirus. The note with it: TK substrate 1. The method, then:
as §1, §2

The subject of another assay is NCI-H2228 cells. In words: Anchorage independent growth of NCI-H2228 cells (spheroid plate). The assay is classed as cell-based, human. The method, then:
(§3) The v3 expressing 3T3 cells (Example 2) were seeded to a 96 well spheroid plate (Sumilon Celltight Spheroid 96U, Sumitomo Bakelite Inc.) at 3000 cells per well in a medium (Invitrogen) containing 10% fetal bovine serum. […] At the same time, cells were counted before the addition of drugs (Day 0). Then, cells were cultured under 5% CO2, at 37° C. for 3 days, mixed with a reagent for measuring cell number (CellTiter-Glo™ Luminescent Cell Viability Assay; Promega Inc.) stirred for 20 minutes, and the measurements (day 3) were carried out using a luminometer (ML3000 microtiter plate luminometer; Dynatech Laboratories Inc.).
DMSO (control) or compound A-D was added to the NCI-H2228 cells at 10 μM or 30 nM and this investigation was performed by a similar manner described as in Example 5, except cells were cultured for 5 days after the addition of drugs.

The next assay deals with v3 expressing 3T3 cells. In words: Anchorage independent growth of v3 expressing 3T3 cells (spheroid plate, CellTiter-Glo). Format: cell-based. The method, then:
Measurement for anchorage independent cell growth (colony method, etc) has been known to be a system for investigating an antitumor effect (pharmacologic effect) of compounds (Clinical Oncology, second edition, Cancer and Chemotherapy Publishers Inc.). In place of the colony method, there is a following method using spheroid plates for measuring the growth of non-attached cells.
as §3

For assay [3], the target named is T1, EML4-ALK fusion polypeptide v3. Description: Intracellular autophosphorylation of EML4-ALK fusion polypeptide v3 in v3 expressing 3T3 cells. The assay is classed as cell-based. The following applies: 4 hours. The text has this:
The EML4-ALK fusion polypeptide v3 expression vector (designated as EML4-ALKv3/pMXS) was constructed by subcloning the insert of the EML4-ALKv3/pT7Blue-2 in pMXS plasmid (JBC 275, 24945-24952, 2000). Also, using the EML4-ALKv3/pT7Blue-2, an expression vector (designated as FLAG-EML4-ALKv3/pMX-iresCD8) which expresses both EML4-ALK fusion polypeptide v3 having the FLAG tag at the N-terminus and CD8 was constructed by subcloning the insert in pMX-iresCD8 plasmid (JBC 276, 39012-39020, 2001). The 3T3 cells transfected with the EML4-ALKv3/pMXS described above were inoculated subcutaneously to nude mice at 5×10^6 cells/mouse and observed after 20 days. […] Hereinafter, the 3T3 cells in which EML4-ALK fusion polypeptide v3 is expressed are designated as the v3 expressing 3T3 cells.

Another assay deals with NCI-H2228. Description: Anti-tumor test against NCI-H2228 subcutaneous tumor in NOD/SCID mice. The note with it: 10 mg/kg orally once a day for 14 days, solvent group start day = 100% inhibition, finish day = 0%. Format: in vivo. The method, then: 3×10^6 cells of NCI-H2228 suspended in 50% BD Matrigel™ (BD Biosciences) in PBS were inoculated subcutaneously by injection to the back of 5 weeks old male NOD/SCID mice (Japan Charles River Inc.). […] Administrations were performed once a day for 14 days, and body weight and tumor size were measured every three or four day. Tumor volume was calculated using the following formula. [Tumor volume (mm^3)]=[Tumor major axis (mm)]×[tumor minor axis (mm)]^2×0.5

[4] abbreviates: Homo sapiens, NCI-H2228, read-out: Inhibitory activity on NCI-H2228 cells.
Setting [5] is: Mus musculus, NIH3T3, read-out: Inhibitory activity on v3 expressing 3T3 cells.

T2 sequence (Q9UM73 with tags, fused parts or gaps): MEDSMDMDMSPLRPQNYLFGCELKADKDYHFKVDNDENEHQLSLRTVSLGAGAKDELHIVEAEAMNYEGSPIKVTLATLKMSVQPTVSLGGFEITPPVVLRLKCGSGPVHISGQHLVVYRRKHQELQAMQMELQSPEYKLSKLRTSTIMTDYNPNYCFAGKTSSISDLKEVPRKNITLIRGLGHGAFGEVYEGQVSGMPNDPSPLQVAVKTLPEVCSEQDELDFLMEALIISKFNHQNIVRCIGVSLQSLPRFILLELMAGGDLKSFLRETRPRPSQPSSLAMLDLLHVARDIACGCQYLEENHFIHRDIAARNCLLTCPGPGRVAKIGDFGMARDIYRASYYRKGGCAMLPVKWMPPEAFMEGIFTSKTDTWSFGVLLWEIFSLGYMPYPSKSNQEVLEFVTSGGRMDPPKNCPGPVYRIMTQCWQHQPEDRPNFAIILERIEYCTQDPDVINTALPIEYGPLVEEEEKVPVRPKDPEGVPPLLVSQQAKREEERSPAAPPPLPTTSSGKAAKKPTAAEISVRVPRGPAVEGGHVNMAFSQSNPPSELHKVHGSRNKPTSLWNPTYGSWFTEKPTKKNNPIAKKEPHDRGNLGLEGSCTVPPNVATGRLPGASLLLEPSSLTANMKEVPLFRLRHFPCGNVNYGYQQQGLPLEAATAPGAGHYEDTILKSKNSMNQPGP

Take `COc1cc2ncnc(Nc3ccc(O)c(Br)c3)c2cc1OC` [A, 4-[(3′-Bromo-4′-hydroxyphenyl)amino]-6,7-dimethoxyquinazoline]: the Inhibition on autophosphorylation in assay [1] (final concentration 10 μM) is recorded as 100%. Further, the “Inhibition of the activity of NPM-ALK” value at NPM-ALK is reported as “inhibit the activity of NPM-ALK”. Also, in assay [2] (final concentration 10 μM), the “Inhibition on peptide substrate” value came to 98%. Further, the “Inhibitory activity on NCI-H2228 cells” value in the assay with NCI-H2228 cells (final concentration 10 μM, 5 days, cell number at Day 0 = 100% inhibition, Day 5 = 0%) stood at 164%. Also, the “Inhibitory activity on v3 expressing 3T3 cells” value in the assay on v3 expressing 3T3 cells (final concentration 10 μM, 3 days, cell number at Day 0 = 100% inhibition, Day 3 = 0%) is given as 172%. In addition, the “Inhibition on autophosphorylation (v3 expressing 3T3 cells)” value in assay [3] (final concentration 10 μM) stood at 94%.
Turning to `O=C(COc1ccc(OC(F)(F)F)cc1)NCc1nc(C(=O)NCCc2cccc(Cl)c2)cs1` [B, N-[2-(3-chlorophenyl)ethyl]-2-[({[4-(trifluoromethoxy)phenoxy]acetyl}amino)methyl]-1,3-thiazole-4-carboxamide], the inhibition at 10 µM stood at 100% in assay [1] (final concentration 10 μM); 77% in assay [2] (final concentration 10 μM); 102% in the assay on NCI-H2228 cells (setting [4]); 53% in the assay on v3 expressing 3T3 cells (setting [5]); 76% in assay [3] (NIH3T3, final concentration 10 μM).
With `COc1cc2ncnc(Nc3ccc(O)cc3)c2cc1OC` [WHI-P131, 4-(4′-Hydroxyphenyl)amino-6,7-dimethoxyquinazoline], on NPM-ALK, the “Inhibition of the activity of NPM-ALK” value is “inhibit the activity of NPM-ALK”.
`COc1cc(N2CCC(N3CCN(C)CC3)CC2)ccc1Nc1ncc(Cl)c(Nc2ccccc2S(=O)(=O)C(C)C)n1` [Compound C, 5-chloro-N^4-[2-(isopropylsulfonyl)phenyl]-N^2-{2-methoxy-4-[4-(4-methylpiperazin-1-yl)piperidin-1-yl]phenyl}pyrimidine-2,4-diamine]: in the assay with NCI-H2228, the “Inhibition rate of tumor growth (tumor volume) of NCI-H2228” value is recorded as 132%. The results for the inhibition at 0.03 µM in the assay with NCI-H2228 cells (setting [4]) and in the assay on v3 expressing 3T3 cells (setting [5]) were 137% and 182%, respectively.
As to `CNS(=O)(=O)c1ccccc1Nc1nc(Nc2ccc(N3CCN(C)CC3)cc2OC)ncc1Br` [D, 2-[(5-bromo-2-{[2-methoxy-4-(4-methylpiperazin-1-yl)phenyl]amino}pyrimidin-4-yl)amino]-N-methylbenzenesulfonamide], the inhibition at 0.01 µM in assay [1] (final concentration 10 nM) amounted to 107%; in assay [2] (final concentration 10 nM), 98%; in assay [3] (NIH3T3, final concentration 10 nM) it was 106%. For the same compound, the figures for the inhibition at 0.03 µM with NCI-H2228 cells (setting [4]) and in the assay on v3 expressing 3T3 cells (setting [5]) were 141% and 206%, respectively.
